Test results from article PMC6515340, “Synthesis of a Fluorous-Tagged Hexasaccharide and Interaction with Growth Factors Using Sugar-Coated Microplates” (Molecules, 2019).
Values joined by “and” are separate entries in the source; they are usually repeats but may differ in a detail not shown here. Identical values can stand only once. “Also recorded” adds a separate entry of the source. Like-named read-outs stand apart in the source and are kept apart here.

Legend:
[1] = biological target: T1, midkine (Homo sapiens, UniProt P21741); assay: Fluorous sugar-coated microplate direct binding assay, midkine; parameters: purchased Peprotech
T1 sequence (P21741 21-143): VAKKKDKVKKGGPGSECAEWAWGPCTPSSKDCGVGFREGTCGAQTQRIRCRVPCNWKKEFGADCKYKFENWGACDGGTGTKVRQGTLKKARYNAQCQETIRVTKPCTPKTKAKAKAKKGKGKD
Description: (§1) An alternative strategy was also considered to study these molecular recognition events. This approach involved the non-covalent immobilization of the fluorinated hexamer 17 on microtiter plates (Figure 1). Fluorous-based microarrays for the investigation of carbohydrate-protein interactions have been previously developed. A C8F17 tail was employed for the noncovalent immobilization of sugar derivatives on fluorous coated glass slides. However, to the best of our knowledge, an experimental protocol to study the interactions between fluorous sugar-coated conventional microplates and proteins has not been published. […] Thus, we created a fluorinated surface ready for the immobilization of compound 17 through noncovalent fluorous-fluorous interactions. […] Then, the binding of the attached sugar 17 to growth factors was analyzed. Incubation with different concentrations of midkine, FGF-2 and NGF was carried out and the bound protein was detected by further incubations with the corresponding primary and fluorescently labelled secondary antibodies (see Materials and Methods). Finally, the fluorescence was recorded using a standard microplate reader. The observation of fluorescence signals confirmed the interaction between immobilized 17 and the protein at a particular concentration. […]
(§2) The fluorescence was read at 535 nm using a TRIAD multimode microplate reader (from Dynex). […]

[2] = biological target: T2, FGF-2 (Homo sapiens, UniProt P09038); assay: Fluorous sugar-coated microplate direct binding assay, FGF-2; parameters: purchased Peprotech
Description: as §1, §2
Target sequence in this assay (P09038 135-288 limits assumed): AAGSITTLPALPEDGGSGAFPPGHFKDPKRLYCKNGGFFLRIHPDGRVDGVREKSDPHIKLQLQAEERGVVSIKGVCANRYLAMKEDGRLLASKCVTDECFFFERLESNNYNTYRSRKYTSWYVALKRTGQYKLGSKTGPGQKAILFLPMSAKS

[3] = biological target: T3, Recombinant human NGF (Homo sapiens, UniProt P01138); assay: Fluorous sugar-coated microplate direct binding assay, NGF
T3 construct: purchased Peprotech
Description: as §1, §2

[4] = biological target: T4, Concanavalin A (Canavalia ensiformis, UniProt P02866); assay: Sugar-coated microplate control with FITC-labelled Concanavalin A; format: binding; conditions: fluorescently labelled protein at 11 µM
T4 construct: purchased Sigma
Protocol: (§3) Importantly, we performed a control experiment in which sugar 3, instead of hexamer 17, was immobilized on the fluorous-functionalized plate (see Supplementary Materials). […] In addition, wells coated with hexamer 17 were incubated with two fluorescently labelled non-GAG binding proteins, Concanavalin A and bovine serum albumin, at 11 µM concentration (see Supplementary Materials). Again, we observed no fluorescence signals from these wells.
(§4) 2. Control experiments using additional (irrelevant) proteins.
(§5) The wells of Nunc Immobilizer AminoTM 384 microtiter plates were functionalized with heptadecafluorononylamine linker and then filled with a solution of hexamer 17 as described in the Materials and Methods section of the main text. The resulting hexasaccharide 17-coated wells were ready to perform protein interaction studies. Blank wells were coated with the fluorous linker alone. […]
(§6) Finally, the fluorescence was read at 535 nm using a TRIAD multimode microplate reader (from Dynex). For each protein, the residual fluorescence intensities obtained from blank samples were subtracted from the sugar-coated well values. In Figure S4, we show the average fluorescence intensities of three replicates after incubation with BSA and ConA. For comparison purposes, we also display the fluorescence values obtained after incubation with a 375 nM solution of midkine (detected by antibody incubations). […]

[5] = biological target: T5, bovine serum albumin (Bos taurus, UniProt P02769); assay: Sugar-coated microplate control with FITC-labelled bovine serum albumin; format: binding; conditions: fluorescently labelled protein at 11 µM
T5 construct: purchased Sigma-Aldrich
Protocol: as §3, §4, §5, §6

[6] = biological target: T1, midkine; assay: Fluorescence polarization (FP) competition experiment, midkine; format: binding; conditions: midkine 63 nM
Description: (§7) Thus, we initiated the study of the interactions between 17 and midkine, FGF-2 and NGF growth factors. First, we estimated the solution-phase binding affinities using our previously reported fluorescence polarization (FP) competition experiment (see Supplementary Materials). Briefly, we measured the ability of hexasaccharide 17 to compete with a fluorescent probe for protein binding. Thus, we calculated IC50 values as 17 concentration required for 50% inhibition. […] We also attempted to measure the binding of 17 to NGF.
(§8) Fluorescence polarization assays
(§9) In order to calculate IC 50 values, fluorescence polarization competition experiments were performed following our previously reported protocol. 1 Briefly, we recorded the fluorescence polarization from wells containing 20 µL of protein solution (midkine or FGF-2) and 10 µL of probe solution (a fluorescein labelled heparin-like hexasaccharide) in the presence of 10 µL of 17 solutions with different concentrations. 384-well microplates from Corning were used in these assays. After shaking in the dark for 5 min, the fluorescence polarization was measured using a TRIAD multimode microplate reader (from Dynex), with excitation and emission wavelengths of 485 and 535 nm, respectively. […]
(also on this page, place not known: r 2 Fluorescence Polarization (mP) r 2 Fluorescence Polarization (mP) r 2 Fluorescence Polarization (mP))

[7] = biological target: T2, FGF-2; assay: Fluorescence polarization (FP) competition experiment, FGF-2; format: binding; conditions: solution FP competition with fluorescent heparin-like hexasaccharide probe (10 nM), FGF-2 97 nM; average ± SD of three independent experiments
Description: as §7, §8, §9
Target sequence in this assay (P09038 143-288): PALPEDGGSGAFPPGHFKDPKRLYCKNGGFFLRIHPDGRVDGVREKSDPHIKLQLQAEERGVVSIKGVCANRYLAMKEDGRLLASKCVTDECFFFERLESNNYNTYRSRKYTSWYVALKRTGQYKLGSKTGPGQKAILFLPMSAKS
(also on this page, place not known: r 2 Fluorescence Polarization (mP) IC50 r 2 Fluorescence Polarization (mP) IC50 r 2 Fluorescence Polarization (mP))

[8] = read-out: KD,surf, sugar immobilized on fluorous-functionalized microplate, one-site binding model

T3 sequence (P01138 122-241): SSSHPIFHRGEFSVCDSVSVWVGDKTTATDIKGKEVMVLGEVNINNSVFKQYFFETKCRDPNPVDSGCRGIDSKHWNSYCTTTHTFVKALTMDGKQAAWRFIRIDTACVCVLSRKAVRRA
T5 sequence (P02769 25-607): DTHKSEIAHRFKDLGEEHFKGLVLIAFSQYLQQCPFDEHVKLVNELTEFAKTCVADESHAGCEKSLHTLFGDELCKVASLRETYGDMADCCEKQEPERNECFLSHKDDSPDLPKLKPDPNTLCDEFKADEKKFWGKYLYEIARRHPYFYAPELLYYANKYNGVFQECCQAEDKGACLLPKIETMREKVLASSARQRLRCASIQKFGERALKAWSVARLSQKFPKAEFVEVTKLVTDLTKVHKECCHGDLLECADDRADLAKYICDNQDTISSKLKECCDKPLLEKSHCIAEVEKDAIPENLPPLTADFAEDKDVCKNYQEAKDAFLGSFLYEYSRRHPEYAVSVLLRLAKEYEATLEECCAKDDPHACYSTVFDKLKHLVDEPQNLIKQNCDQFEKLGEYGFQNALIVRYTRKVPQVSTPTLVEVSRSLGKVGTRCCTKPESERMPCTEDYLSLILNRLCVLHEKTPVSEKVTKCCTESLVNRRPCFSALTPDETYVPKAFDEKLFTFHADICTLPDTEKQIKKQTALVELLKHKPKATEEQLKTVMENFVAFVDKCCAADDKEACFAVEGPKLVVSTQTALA

SMILES	fluorescence signal / interaction of immobilized sugar with midkine ([1]; control, sugar immobilized from 250 µM solution, 375 nM midkine)	fluorescence signal / interaction of immobilized sugar with FGF-2 ([2]; control, sugar immobilized from 250 µM solution, 387 nM FGF-2)	fluorescence signal / interaction of immobilized sugar with NGF ([3]; control, sugar immobilized from 250 µM solution, 1.8 µM NGF)	Kd [1, 8] [nM]	Kd [2, 8] [nM]	interaction of immobilized sugar with Concanavalin A [4]	interaction of immobilized sugar with bovine serum albumin [5]	IC50 ([6]; Figure S1, individual competition curves, probe 10 nM, read-out: IC50 (single independent experiment))	IC50 ([6]; solution FP competition with fluorescent heparin-like hexasaccharide probe (10 nM), average ± SD of three independent experiments, read-out: IC50) [nM]	IC50 [7] [nM]	Kd [3, 8] [nM]
COc1ccc(O[C@@H]2O[C@H](COC(=O)CCC(F)(F)C(F)(F)C(F)(F)C(F)(F)C(F)(F)C(F)(F)C(F)(F)C(F)(F)F)[C@@H](O)[C@H](OCc3ccccc3)[C@H]2OC(=O)c2ccccc2)cc1 [Compound 3]	did not significantly interact; also recorded: No fluorescence signals above background	did not significantly interact; also recorded: No fluorescence signals above background	did not significantly interact; also recorded: No fluorescence signals above background	–	–	–	–	–	–	–	–
COc1ccc(OC2OC(COC(=O)CCC(F)(F)C(F)(F)C(F)(F)C(F)(F)C(F)(F)C(F)(F)C(F)(F)C(F)(F)F)C(OC3OC(COS(=O)(=O)O)C(OS(=O)(=O)O)C(OC4OC(COC(=O)C(C)(C)C)C(OC5OC(COS(=O)(=O)O)C(OS(=O)(=O)O)C(OC6OC(COC(=O)C(C)(C)C)C(OC7OC(COS(=O)(=O)O)C(OS(=O)(=O)O)C(OC(=O)CCC(C)=O)C7N7C(=O)c8ccccc8C7=O)C(OCc7ccccc7)C6OC(=O)c6ccccc6)C5N5C(=O)c6ccccc6C5=O)C(OCc5ccccc5)C4OC(=O)c4ccccc4)C3N3C(=O)c4ccccc4C3=O)C(OCc3ccccc3)C2OC(=O)c2ccccc2)cc1 (centres unmarked) [Compound 17]	–	–	–	16 ± 5	57 ± 10	did not interact	did not interact	428 nM and 479 nM and 431 nM	450 ± 30	6300 ± 1600	1600 ± 400
